# Laboratory results reported in patent publication US20060014197A1, “In vivo screening methods for identifying inhibitors of RNA polymerases” (priority 2004, published 2006).
# Tests used:
# resident RNAPII = biological target: T1, resident RNAPII (Homo sapiens, UniProt P24928); assay: Tet-ON GFP reporter assay in transfected eukaryotic cells, no amanitin-resistant RPB1 expressed; format: cell-based; conditions: human HeLa or 293 cells, amanitin added, doxycycline induction, 48 hours; FIG. 7B
# T1 construct: endogenous in cells; host or cells: human HeLa or 293 cells
# [1] = biological target: T2, amanitin-resistant RNAPII (human RPB1 N792D) (Homo sapiens, UniProt P24928, N792D); assay: Tet-ON GFP reporter assay in transfected eukaryotic cells expressing amanitin-resistant RPB1; format: cell-based; conditions: human HeLa or 293 cells with plasmid-expressed amanitin-resistant RPB1, amanitin added, doxycycline induction, 48 hours; FIG. 7B
# T2 construct: expressed in transfected cells; host or cells: human HeLa or 293 cells transfected with the RPB1 plasmid and pGFP
smiles,measurement,setting,value
"CC[C@H](C)[C@@H]1NC(=O)CNC(=O)[C@@H]2Cc3c([nH]c4cc(O)ccc34)[S+]([O-])C[C@@H](NC(=O)CNC1=O)C(=O)N[C@@H](CC(N)=O)C(=O)N1C[C@H](O)C[C@H]1C(=O)N[C@@H]([C@@H](C)[C@@H](O)CO)C(=O)N2 (stereo partly drawn) [amanitin, alpha-amanitin]",GFP fluorescent signal (flow cytometer),resident RNAPII,no fluorescent signal is observed
same,GFP fluorescent signal (flow cytometer),[1],results in fluorescent signal
